Experiments:
[1] = biological target: T1, CLK1(h) (Homo sapiens, UniProt P49759); experiment: radiometric protein kinase assay, CLK1; type: biochemical; details: enzyme inhibition, radiometric, ATP 10 μM; read-out: IC50 (nM) CLK1
T1 construct: purchased Eurofins, Dundee, Scotland
Description: (§1) Enzymatic biochemical activities were evaluated in radiometric protein kinase assays (Eurofins, Dundee, Scotland). Kinases are incubated with buffer, substrate and [γ-^33P]-ATP (specific activity approx. 500 cpm/pmol, concentration as required). The reaction is initiated by the addition of the MgATP mix. After incubation for 40 minutes at room temperature, the reaction is stopped by the addition of 3% phosphoric acid solution. 10 μL of the reaction is then spotted onto a P30 filtermat and washed three times for 5 minutes in 75 mM phosphoric acid and once in methanol prior to drying and scintillation counting.
(§2) All compounds are prepared to 50× final assay concentration in 100% DMSO. Positive control wells contain all components of the reaction with 2% DMSO. Blank wells contain all components of the reaction, with a reference inhibitor replacing the compound of interest. Each kinase is assigned a standard assay concentration of ATP within 20 μM of its apparent KM. Compounds were screened at 1 μM in duplicate or tested at 10 concentrations at half log dilution starting from 10 μM in singlicate. Dose response curves were fitted with four parameter logistic curve to obtain IC50 values. The average coefficient of variation (CV) of the conducted assay is 4.4%.

[2] = biological target: T2, CDK6/cyclinD3(h) (Homo sapiens, UniProt Q00534); experiment: radiometric protein kinase assay, CDK6; type: biochemical; details: enzyme inhibition, ATP 20 μM
T2 construct: purchased Eurofins, Dundee, Scotland
T2 sequence (Q00534 whole entry): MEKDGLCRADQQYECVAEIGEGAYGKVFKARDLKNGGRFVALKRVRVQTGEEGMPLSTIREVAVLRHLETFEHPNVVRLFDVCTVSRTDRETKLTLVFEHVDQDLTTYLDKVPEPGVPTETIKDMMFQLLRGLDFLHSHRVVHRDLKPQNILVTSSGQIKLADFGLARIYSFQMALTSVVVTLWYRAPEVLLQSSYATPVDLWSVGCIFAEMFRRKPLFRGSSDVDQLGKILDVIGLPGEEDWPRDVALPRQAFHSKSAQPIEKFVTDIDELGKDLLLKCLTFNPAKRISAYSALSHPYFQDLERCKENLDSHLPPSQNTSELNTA
T2 sequence (P30281 whole entry partner): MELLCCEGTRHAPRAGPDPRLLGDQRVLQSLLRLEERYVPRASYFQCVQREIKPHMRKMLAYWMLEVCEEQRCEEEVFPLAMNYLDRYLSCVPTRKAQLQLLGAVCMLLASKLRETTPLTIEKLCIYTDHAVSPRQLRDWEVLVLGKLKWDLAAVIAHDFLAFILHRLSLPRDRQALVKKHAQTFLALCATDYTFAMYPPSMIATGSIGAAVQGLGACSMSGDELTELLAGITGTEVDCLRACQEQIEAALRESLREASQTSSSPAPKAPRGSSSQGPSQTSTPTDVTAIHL
Description: as §1, §2

[3] = biological target: T3, CLK4(h) (Homo sapiens, UniProt Q9HAZ1); experiment: radiometric protein kinase assay, CLK4; type: biochemical; details: enzyme inhibition, ATP 10 μM
T3 construct: purchased Eurofins, Dundee, Scotland
T3 sequence (Q9HAZ1 whole entry): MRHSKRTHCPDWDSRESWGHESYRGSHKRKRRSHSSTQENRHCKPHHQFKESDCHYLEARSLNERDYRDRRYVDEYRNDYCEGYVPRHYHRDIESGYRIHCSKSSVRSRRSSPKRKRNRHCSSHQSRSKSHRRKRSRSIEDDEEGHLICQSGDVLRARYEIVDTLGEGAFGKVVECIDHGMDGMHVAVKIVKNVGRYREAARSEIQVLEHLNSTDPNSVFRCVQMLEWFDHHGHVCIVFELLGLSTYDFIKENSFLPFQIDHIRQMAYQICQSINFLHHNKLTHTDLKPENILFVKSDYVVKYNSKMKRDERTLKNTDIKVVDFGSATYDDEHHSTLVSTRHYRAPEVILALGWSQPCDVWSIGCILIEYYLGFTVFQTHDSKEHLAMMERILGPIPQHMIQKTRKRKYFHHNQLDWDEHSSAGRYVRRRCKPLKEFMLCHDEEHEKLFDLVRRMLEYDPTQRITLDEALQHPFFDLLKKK
Description: as §1, §2

[4] = biological target: T4, CDK4/cyclinD3(h) (Homo sapiens, UniProt P11802); experiment: radiometric protein kinase assay, CDK4; type: biochemical; details: enzyme inhibition, ATP 20 μM
T4 construct: purchased Eurofins, Dundee, Scotland
T4 sequence (P11802 whole entry): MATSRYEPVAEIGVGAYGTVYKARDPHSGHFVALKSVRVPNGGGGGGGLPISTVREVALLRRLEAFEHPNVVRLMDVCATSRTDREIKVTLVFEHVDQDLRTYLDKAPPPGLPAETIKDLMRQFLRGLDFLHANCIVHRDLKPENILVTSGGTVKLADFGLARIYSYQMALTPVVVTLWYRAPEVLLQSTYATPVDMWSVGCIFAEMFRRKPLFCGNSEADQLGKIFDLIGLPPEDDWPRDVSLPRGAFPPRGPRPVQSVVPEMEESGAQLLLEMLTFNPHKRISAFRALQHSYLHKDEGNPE
T4 sequence (P30281 whole entry partner): as the sequence (P30281 whole entry partner) above
Description: as §1, §2

[5] = biological target: T5, CLK2(h) (Homo sapiens, UniProt P49760); experiment: radiometric protein kinase assay, CLK2; type: biochemical; details: enzyme inhibition, ATP 10 μM
T5 construct: purchased Eurofins, Dundee, Scotland
T5 sequence (P49760 whole entry): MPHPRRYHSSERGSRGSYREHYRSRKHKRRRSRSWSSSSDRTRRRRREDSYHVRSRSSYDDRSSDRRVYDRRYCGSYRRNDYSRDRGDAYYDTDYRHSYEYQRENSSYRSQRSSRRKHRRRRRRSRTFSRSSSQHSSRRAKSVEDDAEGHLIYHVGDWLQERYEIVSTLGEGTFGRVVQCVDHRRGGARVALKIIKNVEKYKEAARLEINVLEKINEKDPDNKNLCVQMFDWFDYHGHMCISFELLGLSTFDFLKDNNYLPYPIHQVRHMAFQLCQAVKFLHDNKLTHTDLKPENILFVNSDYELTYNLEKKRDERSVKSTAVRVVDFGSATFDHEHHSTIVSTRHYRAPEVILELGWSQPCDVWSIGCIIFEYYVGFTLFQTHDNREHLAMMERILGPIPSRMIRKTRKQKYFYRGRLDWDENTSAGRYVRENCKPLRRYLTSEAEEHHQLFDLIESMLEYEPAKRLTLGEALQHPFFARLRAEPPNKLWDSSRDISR
Description: as §1, §2

[6] = biological target: T6, CLK3(h) (Homo sapiens, UniProt P49761); experiment: radiometric protein kinase assay, CLK3; type: biochemical; details: enzyme inhibition, radiometric, ATP 90 μM; read-out: IC50 (nM) CLK3
T6 construct: purchased Eurofins, Dundee, Scotland
T6 sequence (P49761 whole entry): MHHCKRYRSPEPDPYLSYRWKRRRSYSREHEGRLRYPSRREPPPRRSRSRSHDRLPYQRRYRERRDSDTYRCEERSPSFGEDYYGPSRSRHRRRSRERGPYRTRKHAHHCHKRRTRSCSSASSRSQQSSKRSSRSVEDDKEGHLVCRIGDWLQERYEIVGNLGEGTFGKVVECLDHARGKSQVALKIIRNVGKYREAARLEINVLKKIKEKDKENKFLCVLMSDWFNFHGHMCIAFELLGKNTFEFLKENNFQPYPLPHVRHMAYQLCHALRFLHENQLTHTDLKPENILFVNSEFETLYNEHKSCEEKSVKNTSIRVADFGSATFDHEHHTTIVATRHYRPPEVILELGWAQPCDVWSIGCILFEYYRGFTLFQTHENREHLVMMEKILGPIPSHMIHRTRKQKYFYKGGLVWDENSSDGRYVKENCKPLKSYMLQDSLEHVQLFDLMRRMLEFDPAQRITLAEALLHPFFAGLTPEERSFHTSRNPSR
Description: as §1, §2

[7] = biological target: T7, CDK1/cyclinB(h) (Homo sapiens, UniProt P06493); experiment: radiometric protein kinase assay, CDK1; type: biochemical; details: enzyme inhibition, ATP 45 μM
T7 construct: purchased Eurofins, Dundee, Scotland
T7 sequence (P06493 whole entry): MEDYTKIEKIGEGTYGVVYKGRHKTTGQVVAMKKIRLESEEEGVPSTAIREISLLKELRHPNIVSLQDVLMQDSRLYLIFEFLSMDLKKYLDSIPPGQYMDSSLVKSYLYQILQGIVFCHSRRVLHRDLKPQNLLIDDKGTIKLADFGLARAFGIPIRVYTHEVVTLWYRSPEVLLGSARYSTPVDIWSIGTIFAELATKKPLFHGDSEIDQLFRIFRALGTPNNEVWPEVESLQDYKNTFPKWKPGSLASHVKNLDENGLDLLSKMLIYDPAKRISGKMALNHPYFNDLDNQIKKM
T7 sequence (P14635 whole entry partner): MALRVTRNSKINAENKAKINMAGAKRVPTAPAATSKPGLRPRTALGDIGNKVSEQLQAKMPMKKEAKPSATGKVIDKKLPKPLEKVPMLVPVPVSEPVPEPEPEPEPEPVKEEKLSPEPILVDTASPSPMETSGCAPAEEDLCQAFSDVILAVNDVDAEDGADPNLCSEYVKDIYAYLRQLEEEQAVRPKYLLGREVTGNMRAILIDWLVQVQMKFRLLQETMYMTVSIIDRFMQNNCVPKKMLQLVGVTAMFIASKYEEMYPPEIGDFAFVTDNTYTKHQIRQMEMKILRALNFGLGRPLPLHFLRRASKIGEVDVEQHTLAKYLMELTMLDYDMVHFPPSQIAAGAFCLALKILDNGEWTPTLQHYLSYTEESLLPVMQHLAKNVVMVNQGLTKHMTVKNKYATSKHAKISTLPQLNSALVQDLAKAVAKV
Description: as §1, §2

[8] = system: SK-MEL-2/Luc-MDM2 cells (MDM2-Luc exon-skipping reporter); experiment: cell-based MDM2-Luc exon-skipping reporter assay; details: for activity in the MDM2-Luc assay: at 10 μM; for MDM2-Luc activity: result in words, no concentration stated

T1 sequence (P49759 whole entry): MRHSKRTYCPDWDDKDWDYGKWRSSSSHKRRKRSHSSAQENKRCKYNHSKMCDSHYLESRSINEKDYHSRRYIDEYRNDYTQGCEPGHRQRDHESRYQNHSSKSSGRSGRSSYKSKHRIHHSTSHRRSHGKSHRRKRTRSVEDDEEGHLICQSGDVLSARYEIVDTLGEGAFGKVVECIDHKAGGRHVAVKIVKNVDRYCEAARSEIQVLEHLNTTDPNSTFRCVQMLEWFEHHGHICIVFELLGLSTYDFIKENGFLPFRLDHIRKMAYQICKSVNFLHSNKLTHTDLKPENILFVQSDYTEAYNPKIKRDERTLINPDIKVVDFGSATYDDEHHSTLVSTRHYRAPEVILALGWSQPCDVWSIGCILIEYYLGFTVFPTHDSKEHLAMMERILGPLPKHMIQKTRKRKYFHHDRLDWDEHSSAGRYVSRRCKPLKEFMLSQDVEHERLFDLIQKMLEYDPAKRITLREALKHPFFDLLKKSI

Row | SMILES | IC50 [1] [nM] | IC50 [2] [nM] | IC50 [3] [nM] | IC50 [4] [nM] | IC50 [5] [nM] | IC50 [6] [nM] | IC50 [7] [nM] | activity in the MDM2-Luc assay [8] | MDM2-Luc activity [8]
1 | CC(=O)Nc1cc(Cl)cc(Nc2nc(N[C@@H]3CCCC[C@@H]3N)nc3c2ncn3C(C)C)c1 [Compound 18, N-(3-((2-(((1R,2S)-2-Aminocyclohexyl)Amino)-9-Isopropyl-9H-Purin-6-Yl)Amino)-5-Chlorophenyl)Acetamide] | 19 | > 1000 | 30 | 611 | 7 | > 1000 | > 1000 |  | 
2 | O=C(Nc1cc(C(F)(F)F)ccc1N1CCCCC1)c1ccncc1 [SRPIN340, reference compound] |  |  |  |  |  |  |  | inactive | 
3 | CC(C)n1cnc2c(Nc3cc(N)cc(Cl)c3)nc(N[C@H]3CCCC[C@@H]3N)nc21 [Compound 20, 1V-(3-Amino-5-Chlorophenyl)-M-((1 S,2S)-2-Aminocyclohexyl)-9-Isopropyl-9H-Purine-2,6-Diamine] | 56 | > 1000 | 124 | > 1000 | 14 | > 1000 | > 1000 |  | 
4 | CC(C)n1cnc2c(Nc3cc(N)cc(Cl)c3)nc(N[C@H]3CCNC3)nc21 [Compound 24, (S)—N^6-(3-Amino-5-Chlorophenyl)-9-Isopropyl-N^2-(Pyrrolidin-3-Yl)-9-Purine-2,6-Diamine] | 71 | > 1000 | 77 | > 1000 | 28 | > 1000 | > 1000 |  | 
5 | CCOC(=O)c1c(/C(C#N)=C\N)c2ccc(Cl)c(Cl)c2n1C [KH-CB19, reference compound] |  |  |  |  |  |  |  |  | modest activity
6 | CC(C)n1cnc2c(Nc3cc(N)cc(Cl)c3)nc(N[C@@H]3CCCNC3)nc21 [Compound 23, (R)—N^6-(3-Amino-5-Chlorophenyl)-9-Isopropyl-N^2-(Piperidin-3-Yl)-9H-Purine-2,6-Diamine] | 66 | > 1000 | 102 | > 1000 | 34 | > 1000 | > 1000 |  | 
7 | COCCNc1nc(Nc2cccc(Cl)c2)c2ncn(C(C)C)c2n1 [Compound 13, N^6-(3-Chlorophenyl)-9-Isopropyl-N^2-(2-Methoxyethyl)-9H-Purine-2,6-Diamine] |  |  |  |  |  |  |  |  | dramatically reduced activity
8 | CC(C)n1cnc2c(Nc3cc(N)cc(Cl)c3)nc(N[C@@H]3CCCC[C@H]3N)nc21 [Compound 21, N^6-(3-Amino-5-Chlorophenyl)-N-((1R,2R)-2-Aminocyclohexyl)-9-Isopropyl-9H-Purine-2,6-Diamine] | 274 | > 1000 | 648 | > 1000 | 163 | > 1000 | > 1000 |  | 
9 | CC(C)n1cnc2c(Nc3cc(N)cc(Cl)c3)nc(N[C@@H]3CCCC[C@@H]3N)nc21 [Compound 16, 1V-(3-Amino-5-Chlorophenyl)-N-((1R,2S)-2-Aminocyclohexyl)-9-Isopropyl-9H-Purine-2,6-Diamine] | 17 |  | 25 |  | 6 |  |  |  | 
10 | CCc1cnn2c(NCc3ccc[n+]([O-])c3)cc(N3CCCC[C@H]3CCO)nc12 [dinaciclib, reference compound] |  |  |  |  |  |  |  | inactive | 
11 | CC(C)n1ccc2c(Nc3cccc(Cl)c3)nc(NC3CCCCC3N)nc21 (racemic) [Compound 11, Racemic-N^2-Cis((2-Aminocyclohexyl)-N^4-(3-Chlorophenyl)-7-Isopropyl-7H-Pyrrolo[2,3-D]Pyrimidine-2,4-Diamine] |  |  |  |  |  |  |  | completely abrogated all activity | 
12 | CCn1cnc2c(Nc3cccc(Cl)c3)nc(NC3CCCCC3NC(C)=O)nc21 (racemic) [Compound 12, Racemic N-Cis(2-((6-((3-Chlorophenyl)Amino)-9-Ethyl-9H-Purin-2-Yl)Amino)Cyclohexyl) Acetamide] |  |  |  |  |  |  |  | completely abrogated all activity | 

— US10722515B2, “Dual CLK/CDK1 inhibitors for cancer treatment” (SRI INTERNATIONAL, priority 2016, dated 2020)
